The source of these data is patent EP0465091B1, “Use of 3-oxygermylpropionic acid to treat cold syndrome” (SANWA KAGAKU KENKYUSHO CO., LTD., priority 1990, dated 1992).

The conditions of series [1]: see JP-A-57-53800 and US-A-4309412; cited from earlier work.
A further series concerns rats. The series can be described thus: Antipyretic activity in dry yeast-induced fever (rectal temperature). It counts as in vivo. The settings on record: oral; for Changes in mean temperature, Time 1 hr: rectal temperature 1 hr from dosing; for Changes in mean temperature, Time 2 hr: rectal temperature 2 hr from dosing; for Changes in mean temperature, Time 4 hr: rectal temperature 4 hr from dosing; for Changes in mean temperature, Time 8 hr: rectal temperature 8 hr from dosing; for Changes in mean temperature, Time 0 hr: rectal temperature at 0 hr (18 hours after yeast, at dosing). The protocol:
A 20 % suspension of dry yeast was subcutaneously injected into a Wister line of (masculine) rats (weights: 170-200 g) at a dose of 1 ml/100 g to bring their rectal temperatures up to higher than 39°C(39.13 0.02 ) after the lapse of 18 hours. The drugs to be tested were orally administrated to these rats, six for each group, to measure their rectal temperatures at 1, 2, 4 and 8 hours from dosing. The drugs used were: • (1) 75 mg/Kg (50 mg/Kg calculated as 3-OGP) of the primary composition according to Preparation Example; • (2) 1 mg/Kg of indomethacin (IND); • (3) 5 mg/Kg of indomethacin (IND); • (4) 75 mg/Kg (50 mg/Kg calculated as 3-OGP) of the primary composition according to Preparation Example 1 + 1 mg/Kg of indomethacin - administer at once; and • (5) No drug - control.

The mark [2] stands for this setting: primary composition 75mg/Kg, IND 1mg/Kg, or both.

On to 3-oxygermylpropionic acid [3-OGP], for which the “stability in the presence of water” value in series [1] is listed as “so unstable in the presence of water that its pharmacological activity decreases drastically”.

As for `COc1ccc2c(c1)c(CC(=O)O)c(C)n2C(=O)c1ccc(Cl)cc1` [IND, Indomethacin], in the series on rats (IND 5mg/Kg), the “Changes in mean temperature, Time 1 hr” value stood at 38.35 °C; the “Changes in mean temperature, Time 2 hr” value is 37.67 °C; the “Changes in mean temperature, Time 4 hr” value came out at 37.75 °C; the “Changes in mean temperature, Time 8 hr” value came to 37.94 °C. Further, in the series with rats (IND 5mg/Kg), the “Changes in mean temperature, Time 0 hr” value worked out at 39.13 °C. In the series on rats (setting [2]), the “Changes in mean temperature, Time 1 hr” value was 38.81 °C; the “Changes in mean temperature, Time 2 hr” value was determined as 38.65 °C; the “Changes in mean temperature, Time 4 hr” value is 38.44 °C; the “Changes in mean temperature, Time 8 hr” value came to 38.30 °C. Further, in the series on rats (setting [2]), the “Changes in mean temperature, Time 0 hr” value is 39.13 °C.
